How the values were obtained:
[1] = test system: Mycobacterium terrae bacteria; assay: bacterial suspension test (killing of at least 1×10^6/mL bacteria); type: cell-based; details: for Log Reductions/mL: 20° C.; for Germicidal Efficacy: summary Table 14
Experimental: The bacterial suspension test that was employed is described in Section VII.
The solutions were prepared by adding the appropriate amounts of the germicidal compounds to an aqueous solution. Unless otherwise mentioned all concentrations reported herein are expressed in (w/v) %. The pH of the solution was not adjusted. The tests were conducted at a temperature of about 20° C. (room temperature). The results are presented in terms of log reductions/mL. It is understood that these examples, as well as the other examples herein, are to be construed as merely illustrative, and not limiting.
In this test method, 9 mL of the germicide to be tested is placed in a tube, put into a water bath and allowed to come to the desired temperature. One mL of the test organism, including at least 7 logs/mL of Mycobacterium terrae bacteria, is added to the 9 mL of the germicide to be tested. […] It will be appreciated by those skilled in the art that other concentrations may be utilized by proper dilution and accounting.
At appropriate time intervals, 1 mL aliquots of the germicide-cell suspension were removed and added directly into 9 mL of a 1% glycine solution (neutralizer) and mixed thoroughly to neutralize the germicide in the transferred suspension. The glycine solution was prepared from solid glycine, which is available from VWR Scientific Products, among others. The above-identified 10 mL neutralized solution was then poured through a membrane filter having an average pore size of 0.45 micrometers. The filter was then rinsed twice with at least 150 mL of the 1% glycine solution per rinse. The filter was then placed on an agar plate and incubated for twenty-one days at 37° C. In the above procedure, if dilution was needed, then the 1 mL germicidal-cell suspension was diluted in 99 mL of a phosphate buffer before addition to the 9 mL of the 1% glycine solution. The phosphate buffer was DiLu-LoK™ Butterfields Phosphate Buffer, available from Hardy Diagnostics, of Santa Maria, Calif.
The surviving colonies are then counted. The data is plotted as S/So vs. time. So is the initial count of the bacteria in the above 10 mL solution which is at least 10^6 bacteria/mL, and S is the surviving bacteria from the above filter on the agar plate. The results of the experiments were presented in terms of log reductions. Log reduction is the difference between log(So) and log(S). As one example, if log(So)=6.2, and if there were 100 survivors, then the log(S)=2, and the log reduction was reported as 4.2.

solubility in water = type: physicochemical; details: for Concentration, Saturated: saturated aqueous germicidal solution, pH not adjusted

## O=Cc1cccc(C=O)c1 [IPA, isophthalaldehyde]
[1]; 0.3%, dissolved in 20% isopropanol, 5 min
  Log Reductions/mL: Confluent
[1]; 0.3%, dissolved in 20% isopropanol, 5 min (Table 15)
  Log Reductions/mL: Confluent
[1]
  Germicidal Efficacy: Poor

## 4-pyridinyl-propanedial
Solubility in water
  Concentration, Saturated: (˜2.3%) w/v %
[1]; Saturated (˜2.3% w/v), 5 min
  Log Reductions/mL: 4.0 log reductions/mL

## O=Cc1ccc(C=O)cc1 [TPA, terephthalaldehyde]
[1]; 0.2%, dissolved in 20% isopropanol, 5 min
  Log Reductions/mL: Confluent
[1]
  Germicidal Efficacy: Poor

## O=Cc1ccccc1C=O [OPA, phthalaldehyde]
Solubility in water
  solubility in water: about 5 % by weight
[1]; 0.14%, 5 min
  Log Reductions/mL: 4.8 log reductions/mL
[1]; 0.28%, 5 min
  Log Reductions/mL: 5.5 log reductions/mL
[1]
  Germicidal Efficacy: Good

## O=Cc1ccccc1C(O)S(=O)(=O)[O-].[Na+] (stereo not drawn) [(2-formyl-phenyl)-hydroxy-methane sulfonic acid, sodium salt]
[1]; 9.1%, no dialdehyde, 5 min, listed as (2-formyl-phenyl)-hydroxy-methane sulfonate, sodium salt
  Log Reductions/mL: confluent
[1]; 9.1%, no dialdehyde, 5 min, listed as H-SULF, sodium salt
  Log Reductions/mL: Confluent

## O=CC(C=O)c1ccccc1 [phenyl-propanedial]
Solubility in water
  solubility in water: about 1%
[1]; 0.2%, 60 min
  Log Reductions/mL: 2.1 log reductions/mL
[1]; 0.22%, 60 min
  Log Reductions/mL: 2.1 log reductions/mL
[1]; 0.3%, 30 min
  Log Reductions/mL: 2.1 log reductions/mL
[1]; 0.33%, 30 min
  Log Reductions/mL: 2.1 log reductions/mL
[1]; 0.4%, 30 min
  Log Reductions/mL: 2.5 log reductions/mL
[1]; 0.44%, 30 min
  Log Reductions/mL: 2.5 log reductions/mL
[1]; 0.66%, 5 min
  Log Reductions/mL: <2.5 log reductions/mL
[1]; 0.66%, 10 min
  Log Reductions/mL: 2.5 log reductions/mL
[1]; 0.7%, 10 min
  Log Reductions/mL: 2.5 log reductions/mL
[1]; ˜1%, 5 min (Table 15)
  Log Reductions/mL: 4.5 log reductions/mL

## O=Cc1ccc(F)cc1C=O [4-fluoro-phthalaldehyde]
[1]; 0.25%, 60 minutes exposure
  Log Reductions/mL: Total Kill

## O=CC(c1ccccc1)C(O)S(=O)(=O)[O-].[Na+] (stereo not drawn) [1-hydroxy-3-oxo-2-phenyl-propane-1-sulfonic acid, sodium salt]
[1]; 0.6%, 5 min
  Log Reductions/mL: 2.1 log reductions/mL
[1]; 0.6%, 20 min
  Log Reductions/mL: 2.5 log reductions/mL
[1]; 0.6%, 25 min
  Log Reductions/mL: 2.9 log reductions/mL
[1]; 0.6%, 60 min, sodium salt
  Log Reductions/mL: total kill
[1]; 2.5%, 10 min, sodium salt
  Log Reductions/mL: total kill

## O=Cc1ccc(Br)cc1C=O [4-bromo-phthalaldehyde]
[1]; 0.1%, 10 minutes
  Log Reductions/mL: 5.6 log reductions/mL
[1]; 0.1%, 30 minutes
  Log Reductions/mL: Total Kill

## O=CC(C=O)c1cccc(C(=O)O)c1[N+](=O)[O-] [3-(1-formyl-2-oxoethyl)-2-nitro-benzoic acid]
Solubility in water
  Concentration, Saturated: (˜2.1%) w/v %
[1]; Saturated (˜2.1% w/v), 5 min
  Log Reductions/mL: 4.0 log reductions/mL

## O=Cc1ccc(Cl)cc1C=O [4-chloro-phthalaldehyde]
[1]; 0.2 w/v %, 5 min
  Log Reductions/mL: 5.9 log reductions/mL
[1]; 2.7 w/v % in 20% isopropanol, 5 min
  Log Reductions/mL: Total Kill

Source: patent publication US20050171216A1, “Germicidal compositions containing phthalaldehyde mixtures and methods of using such compositions for disinfection or sterilization” (priority 2004, published 2005)
